Test results as given in patent publication US9365522B2, “Pyrazole amide derivative” (AMGEN INC., priority 2015, dated 2016).

These compounds were tested against T1, human RORγ-LBD (Homo sapiens, UniProt P51449) (assay: ROR gamma coactivator peptide recruitment Alphascreen assay (RORγ-LBD binding to GRIP1 coactivator peptide)). Details: 5 nM human RORγ-LBD, 30 nM 7-β-hydroxycholesterol, 50 nM biotinylated GRIP1 coactivator peptide, overnight incubation at room temperature; read-out: result (pIC50, RORγ coactivator peptide recruitment Alphascreen assay) (converted).
T1 construct: made in house; host or cells: E. coli (BL-21)
T1 sequence (P51449 262-518): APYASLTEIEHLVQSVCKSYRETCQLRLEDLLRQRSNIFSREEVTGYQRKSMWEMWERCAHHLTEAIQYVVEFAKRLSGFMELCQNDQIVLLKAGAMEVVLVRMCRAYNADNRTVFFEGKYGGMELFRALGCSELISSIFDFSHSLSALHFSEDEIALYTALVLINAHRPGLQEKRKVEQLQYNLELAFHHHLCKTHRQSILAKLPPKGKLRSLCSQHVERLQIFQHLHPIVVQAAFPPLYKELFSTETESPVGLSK
Type: biochemical
Summary of the method: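 His/Flag-tagged human RORγ-LBD (aa 262-518, E. coli-expressed, 5 nM) with agonist 7-β-hydroxycholesterol (30 nM) and biotinylated GRIP1 LXXLL peptide (50 nM) in HEPES pH 7.4 buffer, 2.5% DMSO. Compound 1-in-2 dilutions; Alphascreen bead signal read after overnight incubation at room temperature; pIC50 calculated.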

Row | IC50 | SMILES
1 | 53.7 nM | C[C@H]1CC[C@H](CN(CC(=O)c2c(Cl)cncc2Cl)C(=O)c2cnn([C@H]3CC[C@](C)(C(=O)O)CC3)c2C(F)(F)F)O1 [Example 614, trans-4-(4-((2-(3,5-dichloro-4-pyridinyl)-2-oxoethyl)(((2R,5R)-5-methyltetrahydro-2-furanyl)methyl)carbamoyl)-5-(trifluoromethyl)-1H-pyrazol-1-yl)-1-methylcyclohexanecarboxylic acid]
2 | 6.17 nM | Cc1cc(Cl)c(C(=O)CN(CC2CC2)C(=O)c2cnn([C@H]3CC[C@](C)(C(=O)O)CC3)c2C(F)(F)F)c(Cl)c1 [Example 707, trans-4-(4-((cyclopropylmethyl)(2-(2,6-dichloro-4-methylphenyl)-2-oxoethyl)carbamoyl)-5-(trifluoromethyl)-1H-pyrazol-1-yl)-1-methylcyclohexanecarboxylic acid]
3 | 30.2 nM | COC1(CN(CC(=O)c2c(Cl)cncc2Cl)C(=O)c2cnn([C@H]3CC[C@](C)(C(=O)O)CC3)c2C(F)(F)F)CC1 [Example 844, trans-4-(4-((2-(3,5-dichloro-4-pyridinyl)-2-oxoethyl)((1-methoxycyclopropyl)methyl)carbamoyl)-5-(trifluoromethyl)-1H-pyrazol-1-yl)-1-methylcyclohexanecarboxylic acid]
4 | 25.1 nM | C[C@@H]1C[C@H](n2ncc(C(=O)N(CC(=O)c3c(Cl)cncc3Cl)CC(C)(C)C)c2C(F)(F)F)CC[C@H]1C(=O)O [Example 793, (1R,2R,4R)-4-(4-((2-(3,5-dichloro-4-pyridinyl)-2-oxoethyl)(2,2-dimethylpropyl)carbamoyl)-5-(trifluoromethyl)-1H-pyrazol-1-yl)-2-methylcyclohexanecarboxylic acid]
5 | 3.02 nM | C[C@@H]1C[C@@H](n2ncc(C(=O)N(CC(=O)c3c(Cl)cncc3Cl)CC(C)(C)C(F)(F)F)c2C(F)(F)F)CC[C@@H]1C(=O)O [Example 802, (1S,2R,4S)-4-(4-((2-(3,5-dichloro-4-pyridinyl)-2-oxoethyl)(3,3,3-trifluoro-2,2-dimethylpropyl)carbamoyl)-5-(trifluoromethyl)-1H-pyrazol-1-yl)-2-methylcyclohexanecarboxylic acid]
6 | 3.24 nM | COc1cc(Cl)c(C(=O)CN(CC2(F)CCCC2)C(=O)c2cnn([C@H]3CC[C@H](CC(=O)O)CC3)c2C(F)(F)F)c(Cl)c1 [Example 888, (trans-4-(4-((2-(2,6-dichloro-4-methoxyphenyl)-2-oxoethyl)((1-fluorocyclopentyl)methyl)carbamoyl)-5-(trifluoromethyl)-1H-pyrazol-1-yl)cyclohexyl)acetic acid]
7 | 74.1 nM | CC(C)(C)CN(CC(=O)c1c(Cl)cncc1Cl)C(=O)c1cnn([C@H]2CC[C@@H](CC(=O)O)CC2)c1C(F)(F)F [Example 720, (cis-4-(4-((2-(3,5-dichloro-4-pyridinyl)-2-oxoethyl)(2,2-dimethylpropyl)carbamoyl)-5-(trifluoromethyl)-1H-pyrazol-1-yl)cyclohexyl)acetic acid]
8 | 7.24 nM | Cc1cc(Cl)c(CCN(CC(C)(C)C)C(=O)c2cnn(C3CCC(C(=O)O)CC3)c2C(F)(F)F)c(Cl)c1 (stereo in doubt) [Example 512, trans-4-(4-((2-(2,6-dichloro-4-methylphenyl)ethyl)(2,2 - dimethylpropyl)carbamoyl)-5-(trifluoromethyl)-1H-pyrazol-1-yl)cyclohexanecarboxylic acid]
9 | 708 nM | C[C@H]1C[C@](C)(C(=O)O)CC[C@H]1n1ncc(C(=O)N(CC(=O)c2c(Cl)cncc2Cl)CC(C)(C)C)c1C(F)(F)F [Example 883, (1R,3S,4R)-4-(4-((2-(3,5-dichloro-4-pyridinyl)-2-oxoethyl)(2,2-dimethylpropyl)carbamoyl)-5-(trifluoromethyl)-1H-pyrazol-1-yl)-1,3-dimethylcyclohexanecarboxylic acid]

Further lines, the compound ahead of its results:

Row | SMILES | IC50
10 | Cc1cc(Cl)c(CCN(CC2CCCCC2)C(=O)c2cnn([C@H]3CC[C@H](C(=O)O)CC3)c2C(F)(F)F)c(Cl)c1 [Example 510, trans-4-(4-((cyclohexylmethyl)(2-(2,6-dichloro-4-methylphenyl)ethyl)carbamoyl)-5-(trifluoromethyl)-1H-pyrazol-1-yl)cyclohexanecarboxylic acid] | 1.78 nM
11 | C[C@@H]1C[C@H](n2ncc(C(=O)N(CC(=O)c3c(Cl)cccc3Cl)CC3CC(C)(C)C3)c2C(F)(F)F)CC[C@@H]1C(=O)O [Example 683, (1S,2R,4R)-4-(4-((2-(2,6-dichlorophenyl)-2-oxoethyl)((3,3-dimethylcyclobutyl)methyl)carbamoyl)-5-(trifluoromethyl)-1H-pyrazol-1-yl)-2-methylcyclohexanecarboxylic acid] | 8.91 nM
12 | C[C@]1(C(=O)O)CC[C@H](n2ncc(C(=O)N(CC(=O)c3c(Cl)cccc3Cl)[C@H]3CCC34CCCC4)c2C(F)(F)F)CC1 [Example 649, trans-4-(4-((2-(2,6-dichlorophenyl)-2-oxoethyl)((1S)-spiro[3.4]oct-1-yl)carbamoyl)-5-(trifluoromethyl)-1H-pyrazol-1-yl)-1-methylcyclohexanecarboxylic acid] | 1.82 nM
13 | CC1(C)C[C@H](Cc2c(Cl)cncc2Cl)N(C(=O)c2cnn([C@H]3CC[C@](C)(C(=O)O)CC3)c2C(F)(F)F)C1 [Example 688] | 110 nM
14 | C[C@]1(CN(CC(=O)c2c(Cl)ccc(F)c2Cl)C(=O)c2cnn([C@H]3CC[C@](C)(C(=O)O)CC3)c2C(F)(F)F)CCCO1 [Example 814, trans-4-(4-((2-(2,6-dichloro-3-fluorophenyl)-2-oxoethyl)(((2R)-2-methyltetrahydro-2-furanyl)methyl)carbamoyl)-5-(trifluoromethyl)-1H-pyrazol-1-yl)-1-methylcyclohexanecarboxylic acid] | 9.12 nM
15 | C[C@H]1C[C@H](n2ncc(C(=O)N(CC(=O)c3c(Cl)cccc3Cl)CC3CC(C)(C)C3)c2C(F)(F)F)CC[C@H]1C(=O)O [Example 662, (1R,2S,4R)-4-(4-((2-(2,6-dichlorophenyl)-2-oxoethyl)((3,3-dimethylcyclobutyl)methyl)carbamoyl)-5-(trifluoromethyl)-1H-pyrazol-1-yl)-2-methylcyclohexanecarboxylic acid] | 7.08 nM
16 | O=C(c1cnn([C@H]2CC[C@H](C(=O)O)CC2)c1C(F)(F)F)N(CCc1ccccc1Cl)Cc1ccc(Cl)cc1 [Example 500, trans-4-(4-((4-chlorobenzyl)(2-(2-chlorophenyl)ethyl)carbamoyl)-5-(trifluoromethyl)-1H-pyrazol-1-yl)cyclohexanecarboxylic acid] | 15.1 nM
17 | O=C(CN(C(=O)c1cnn([C@H]2CC[C@@H](C(=O)O)CC2)c1C(F)(F)F)C1CC2(CCC2)C1)c1c(Cl)cccc1Cl [Example 613, cis-4-(4-((2-(2,6-dichlorophenyl)-2-oxoethyl)(spiro[3.3]hept-2-yl)carbamoyl)-5-(trifluoromethyl)-1H-pyrazol-1-yl)cyclohexanecarboxylic acid] | 110 nM
18 | C[C@]1(C(=O)O)CC[C@H](n2ncc(C(=O)N(C[C@H](O)c3c(Cl)cncc3Cl)CC3(F)CC3)c2C(F)(F)F)CC1 [Example 840, trans-4-(4-(((2R)-2-(3,5-dichloro-4-pyridinyl)-2-hydroxyethyl)((1-fluorocyclopropyl)methyl)carbamoyl)-5-(trifluoromethyl)-1H-pyrazol-1-yl)-1-methylcyclohexanecarboxylic acid] | 240 nM
19 | Cc1cc(Cl)c(C(=O)CN(CC2(F)CCCC2)C(=O)c2cnn([C@H]3CC[C@@H](C(=O)O)CC3)c2C(F)(F)F)c(Cl)c1 [Example 631, cis-4-(4-((2-(2,6-dichloro-4-methylphenyl)-2-oxoethyl)((1-fluorocyclopentyl)methyl)carbamoyl)-5-(trifluoromethyl)-1H-pyrazol-1-yl)cyclohexanecarboxylic acid] | 10 nM
20 | C[C@]1(C(=O)O)CC[C@H](n2ncc(C(=O)N(CC(=O)c3c(Cl)cncc3Cl)[C@H]3C[C@@H]4CC[C@H]3C4)c2C(F)(F)F)CC1 [Example 677, trans-4-(4-((1S,2R,4R)-bicyclo[2.2.1]hept-2-yl(2-(3,5-dichloro-4-pyridinyl)-2-oxoethyl)carbamoyl)-5-(trifluoromethyl)-1H-pyrazol-1-yl)-1-methylcyclohexanecarboxylic acid] | 5.62 nM
21 | C[C@]1(C(=O)O)CC[C@H](n2ncc(C(=O)N(CC(=O)c3c(Cl)cncc3Cl)C3CC4(CCC4)C3)c2C(F)(F)F)CC1 [Example 633, trans-4-(4-((2-(3,5-dichloro-4-pyridinyl)-2-oxoethyl)(spiro[3.3]hept-2-yl)carbamoyl)-5-(trifluoromethyl)-1H-pyrazol-1-yl)-1-methylcyclohexanecarboxylic acid] | 8.13 nM
22 | Cc1cc(Cl)c(C(=O)CN(C(=O)c2cnn([C@H]3CC[C@](C)(C(=O)O)CC3)c2C(F)(F)F)[C@@H]2CCC23CCC3)c(Cl)c1 [Example 722, trans-4-(4-((2-(2,6-dichloro-4-methylphenyl)-2-oxoethyl)((1R)-spiro[3.3]hept-1-yl)carbamoyl)-5-(trifluoromethyl)-1H-pyrazol-1-yl)-1-methylcyclohexanecarboxylic acid] | 9.55 nM
23 | C[C@]1(C(=O)O)CC[C@H](n2ncc(C(=O)N(CC(=O)c3c(F)cccc3Cl)CC3(F)CCCC3)c2C(F)(F)F)CC1 [Example 643, trans-4-(4-((2-(2-chloro-6-fluorophenyl)-2-oxoethyl)((1-fluorocyclopentyl)methyl)carbamoyl)-5-(trifluoromethyl)-1H-pyrazol-1-yl)-1-methylcyclohexanecarboxylic acid] | 4.27 nM
